Measured values from patent publication EP0070049A1, “Derivative of acetylsalicylic acid having an analgetic, antipyretic, antiphlogistic and bronchosecretolytic activity” (UNIONE CHIMICA MEDICAMENTI- DIFME-S.p.A., priority 1981, dated 1983).

Legend:
[1] = Acute oral toxicity (DL50, Lichtfield et al); design: species or system rats; conditions: rat, in vivo
Description: La toxicité aiguë de l'acétylsalicylate de 2(o-méthoxy--phénoxy)éthanol a été évaluée en comparaison avec celle de l'acide acétylsalicylique et exprimée comme dose DL50 (la dose qui provoque la mort du 50% des animaux traités) en mg/kg de poids corporel des rats auxquels la substance a été administrée par voie orale. Les résultats de l'élaboration statistique suivant la méthode décrite par J.T.Lichtfield et al (J. Pharm. Exp. Ther., volume 96, page 99, 1949) donnent les suivantes valeurs de la dose toxique DLSO et, entre parenthèses, de son intervalle fiducial (valeurs minimale et maximale relevées): • acide acétylsalicylique 1400 (1207 1580) • acétylsalicylate de • 2(o-méthoxy-phénoxy)éthanol 2934 (2696 3098)

[2] = test system: convulsions abdominales (writhings) induites dans le souris par une injection intrapéritonéale d'acide acétique; experiment: Acetic acid writhing test (analgesic activity, Koster and Anderson); format: in vivo; conditions: souris, 60 minutes après l'administration; for Frequence writhings: ± déviation standard
Description: L'activité analgésique de l'acétylsalicylate de 2(o-méthoxy-phénoxy)éthanol a été évaluée en comparaison avec celle de l'acide acétylsalicylique sur la base de la fréquence des convulsions abdominales (writhings) induites dans le souris par une injection intrapéritonéale d'acide acétique, suivant la technique décrite par Koster et Anderson (Fed. Proc., volume 18, page 412, 1959). Les résultats de l'élaboration statistique des épreuves sont indiqués dans le suivant Tableau 3, dans lequel la fréquence des convulsions est indiquée comme nombre de convulsions par minute ± la déviation standard, et a été mesurée 60 minutes après l'administration; pour les autres valeurs est valable ce qui a été spécifié en relation avec le Tableau 1.

[3] = Solubility (characteristics of the substance); format: physicochemical
[4] = test system: rats; conditions: rat, in vivo, 915 mg/kg
Description: La toxicité subaiguë de l'acétylsalicylate de 2(o-méthoxy-phénoxy)éthanol a été évaluée en comparaison avec celle de l'acide acétylsalicylique en administrant à des rats, par voie orale, des doses journalières de substance pour 10 jours, et en relevant le nombre des animaux morts, la diminution moyenne de poids des animaux traités et l'incidence des lésions gastriques relevées, distinguées en simple hyperémie, hyperémie accompagnée par hémorragie et hémorragie accompagnée par ulcérations. Les résultats des épreuves sont indiqués dans le Tableau 5, dans lequel la dose de substance administrée est exprimée en mg de substance par kg de poids corporel et par jour, et la diminution moyenne de poids corporel à la fin du traitement est exprimée en grammes.

[5] = test system: oedème induit par carraghénine injectée dans la patte de rats; experiment: Carrageenan-induced rat paw oedema (antiphlogistic activity, Winter et al); format: in vivo; conditions: voie orale; for Volume de l'oedème - ml ± d.s. après 3 heures: 3 heures après le traitement oedémigène; for Volume de l'oedème - ml ± d.s. après 6 heures: 6 heures après le traitement oedémigène
Description: L'activité antiphlogistique de l'acétylsalicylate de 2(o-méthoxy-phénoxy) éthanol a été évaluée en comparaison avec celle de l'acide acétylsalicylique sur la base de la variation de volume de l'oedème induit par carraghénine injectée dans la patte de rats, suivant la technique décrite par Winter et al (Proc. Soc. Exp. Biol. Med., volume III, page 544, 1962). Les résultats de l'élaboration des épreuves sont indiqués dans le Tableau 1, dans lequel le volume de l'oedème est indiqué en millilitres z la déviation standard, et il a été mesuré 3, 4,5 et 6 heures après le traitement oedémigène; la dose de substance est indiquée en milligrammes de substance administrée par voie orale pour chaque kilogramme de poids corporel des rats; les valeurs marquées par * correspondent à une probabilité d'erreur p < 0,05, les valeurs marquées correspondent à une probabilité d'erreur p < 0,01, calculées sur les valeurs des contrôles, et les valeurs indiquées entre parenthèses indiquent l'inhibition en pour-cent calculée par rapport aux contrôles.

[6] = test system: arbre bronchial de rats Wistar; experiment: Bronchosecretolytic activity: pulmonary excretion of fluorescein (Mawatari); format: in vivo; conditions: rats Wistar, 200 mg/Kg
Description: L'activité bronchosécrétolytique de l'acétylsalicylate de 2(o-méthoxy-phénoxy)éthanol a été évaluée en comparaison avec celle du gaïacoléthanol, sur la base de la mesure des variations de la quantité d'indicateur (fluorescéine) trouvée dans l'arbre bronchial de rats Wistar, recueillie au moyen d'un système de lavage standardisé, après injection parentérale de l'indicateur, et mesurée au moyen d'un spectrofluorométre, suivant la méthode décrite par H.Mawatari ("Expérimental studies on the expectorant action of several drugs", Kagoshima Daigakeu Igakeu Zasshi, volume 27, page 561, 1976). Les résultats de l'élaboration statistique des épreuves sont recueillis dans le suivant tableau 4,dans lequel l' excrétion pulmonaire de fluorescéine est exprimée en microgrammes ± la déviation standard, soit dans la quantité totale trouvée, soit dans la quantité pour-cent rapportée à 100 g de poids corporel des rats. Entre parenthèses sont indiquées les valeurs de l'augmentation pour-cent par rapport aux contrôles. Pour les autres valeurs est valable ce qui été précisé en relation au Tableau 1.

Molecule `COc1ccccc1OCCOC(=O)c1ccccc1OC(C)=O` [acétylsalicylate de 2(o-méthoxy-phénoxy)éthanol] has an LD50 [1] of 2930 mg/kg, an inhibition at 100 mg/kg ([2]; 1 h, 100 mg/Kg, read-out: % inhibition) of 33% and an inhibition at 200 mg/kg ([2]; 1 h, 200 mg/Kg, read-out: % inhibition) of 49%. For the same molecule, the Frequence writhings ([2]; 100 mg/Kg) was “**19,5 ± 5,4 convulsions par minute”, the Frequence writhings ([2]; 200 mg/Kg) was “**14,88 ± 6,8 convulsions par minute” and the “solubilité en solvants organiques” value ([3]; benzène, chloroforme, diméthylcétone, éthanol, éther éthylique, isopropanol et autres solvants organiques) was “soluble”. For the same molecule, the “solubilité dans l'eau” value ([3]; eau) was “practiquement insoluble”, the “Lésions gastriques Hyperémie” value [4] was 4 and the “Lésions gastriques Hyperémie + hémorragie” value [4] was 2. For the same molecule, the “Lésions gastriques Hémorragie + ulcérations” value [4] was “=”, the Nombre animaux morts [4] was 3 and the Δ poids moyenne [4] was -10 grammes. For the same molecule, the “inhibition en pour-cent calculée par rapport aux contrôles, après 3 heures” value ([5]; 100 mg/Kg) was 44,0 pour-cent, the “Volume de l'oedème - ml ± d.s. après 3 heures” value ([5]; 100 mg/Kg) was 0,380 ± 0,18 ml and the “inhibition en pour-cent calculée par rapport aux contrôles, après 4,5 heures” value ([5]; 100 mg/Kg, 4,5 heures) was 45,0 pour-cent. For the same molecule, the “Volume de l'oedème - ml ± d.s. après 4,5 heures” value ([5]; 100 mg/Kg, 4,5 heures après le traitement oedémigène) was 0,333 ± 0,17 ml, the “inhibition en pour-cent calculée par rapport aux contrôles, après 6 heures” value ([5]; 100 mg/Kg) was 39,0 pour-cent and the “Volume de l'oedème - ml ± d.s. après 6 heures” value ([5]; 100 mg/Kg) was 0,291 ± 0,13 ml. For the same molecule, the “inhibition en pour-cent calculée par rapport aux contrôles, après 3 heures” value ([5]; 200 mg/Kg) was 70,0 pour-cent, the “Volume de l'oedème - ml ± d.s. après 3 heures” value ([5]; 200 mg/Kg) was 0,20 + 0,1 ml and the “inhibition en pour-cent calculée par rapport aux contrôles, après 4,5 heures” value ([5]; 200 mg/Kg, 4,5 heures) was 67,0 pour-cent. The “Volume de l'oedème - ml ± d.s. après 4,5 heures” value ([5]; 200 mg/Kg, 4,5 heures après le traitement oedémigène) was 0,20 + 0,11 ml, the “inhibition en pour-cent calculée par rapport aux contrôles, après 6 heures” value ([5]; 200 mg/Kg) was 65,0 pour-cent and the “Volume de l'oedème - ml ± d.s. après 6 heures” value ([5]; 200 mg/Kg) was 0,16 + 0,1 ml. For the same molecule, the “augmentation pour-cent par rapport aux contrôles (excrétion pulmonaire de fluorescéine, quantité totale)” value [6] was “+90,8 pour-cent”, the “Excrétion pulmonaire de fluorescéine Quantité pour-cent µg/100 g” value ([6]; rapportée à 100 g de poids corporel, ± déviation standard) was 0,230 ± 0,042 µg/100 g and the “Excrétion pulmonaire de fluorescéine Quantité totale µg” value ([6]; ± déviation standard) was 0,481 ± 0,068 µg.
